# Laboratory results as given in patent US20050197364A1, “Amide compounds as ion channel ligands and uses thereof” (priority 2003, published 2005).
# Assays:
# VR1 receptor = assay: High throughput calcium imaging assay (Fura2, Flex Station) of VR1 antagonists, pH 5.1 stimulus; assay type: cell-based; settings: 1 uM compound; inhibition of calcium ion influx induced by capsaicin stimulation
# Description: Therefore the functional activity of compounds at the VR1 receptor may be determined by measuring changes in intracellular calcium levels in 293 cells expressing capsaicin-insensitive VR1 receptor variants. A dual wavelength ratiometric dye, Fura2, was used as an indicator of relative levels of calcium ions in a 96 well format using a bench top scanning fluorometer with integrated fluidics and temperature control (Flex Station, Molecular Devices).
# 293 cells were grown on PDL coated 96-well black-walled plates, in the presence of a DMEM medium containing 5% Penstrep, 5% Glutamax, 200 ug/mL Hygromycin, 5 μg/mL Blasticide and 10% heat inactivated FBS. Prior to assay, the cells were loaded with 5 μg/mL Fura2 in normal saline solution at 37° C. for 40 minutes. Cells were then washed with normal saline to remove the dye.
# The assay consists of two stages; a pre-treatment phase followed by a treatment phase.
# 50 μl of a compound solution was added to the cells (Pre-treatment). Immediately following, 50 μl of the test compound in a saline solution at pH 5.1 was added. Fura2 was excited at 340 and 380 nM to indicate relative calcium concentration. Changes in wavelength measurements were made throughout the course of the experiment in 4 second intervals over a period of 3 minutes. Responses were measured as peak fluorescence ratio after test compound addition minus baseline fluorescence ratio prior to pre-treatment and were calculated using SoftMaxPro softwareData were expressed as percentage inhibition calculated using Excel as follows: [formula]
# thermal hyperalgesia = assay: Thermal hyperalgesia (carrageenan, latency of paw withdrawal); assay type: in vivo, rat; settings: rats, 30 mg/kg, two hours after dosing, FIG. 6
# Description: Sprague-Dawley male rats obtained from Charles River, San Diego, Calif. were purchased at 150-175 g, and held for at least one week before testing. Pain was induced by injecting 100 μl of 2% carrageenan in 0.9% saline sub-Q into the right ventral hindpaw while the animals were under isofluorane anesthesia. Animals were then dosed one hour after with different concentrations of Compound 18 (3, 10, and 30 mg/kg). Two hours later, after acclimatizing in testing chambers for 20-30 minutes, animals were tested on both hindpaws for latency of paw withdrawal using a thermal testing apparatus. 2-3 trials were conducted with 10 minutes between trials. […] The figure depicts the time in seconds until animals withdraw from thermal stimulation at baseline and two hours after administration of delivery vehicle, control compound, and three concentrations of Compound 18.
# [1] = Aqueous equilibrium solubility; assay type: physicochemical; settings: room temperature
# Description: Equilibrium solubility was measured in a pH 2.0 isotonic solution of NaCl/HCl and a pH 7.4 aqueous buffer. The pH 2.0 solution was prepared by adjusting the saline solution to a pH of 2.0 using HCl. The pH 7.4 buffer was prepared by adjusting the pH of a 0.07 M solution of NaH2PO4 to pH 7.4 with 10 N NaOH. […] At least 1 mg of powder was combined with 1 ml of buffer to make ≧1 mg/ml mixture. This sample was shaken for ≧2 hours and left to stand overnight at room temperature. The samples were then filtered through a 0.45-μm Nylon syringe filter that was first saturated with the sample. The filtrate was sampled twice, consecutively. All samples were assayed by LC/MS using electrospray ionization. The typical range of the assay is greater than 1 mg/mL to less than 0.0002 mg/mL, depending on analytical sensitivity.
# [2] = Partition coefficient Log(D), 1-octanol / pH 7.4 buffer; assay type: physicochemical; settings: pH 7.4, 1-octanol/buffer
# Description: The partition coefficient, Log(D), between water-saturated 1octanol and pH 7.4 buffer was determined for Compound 18. The pH 7.4 buffer was prepared by adjusting the pH of a 0.07 M solution of NaH2PO4 to pH 7.4 with 10 N NaOH. 15 μL of a 10 mM stock solution of test article were pipetted in duplicate, into test tubes containing 750 μL each of 1-octanol and pH 7.4 buffer. Then 3 μL of 50 mM testosterone was also added to each tube. Then the tubes were rotated for about one hour using a benchtop rotator. Following the rotation, the tubes sat on the bench top for about 1 hour to allow the layers to separate.
# Thereafter, 400 μL of the octanol (top) layer was removed and placed into a test tube. Next 400 μL of the aqueous (bottom) layer was removed and placed into a test tube. […]
# A standard curve of test article and testosterone was prepared using 50% methanol at the following concentrations: 2, 0.6, 0.2, 0.06, 0.02, 0.006, and 0.002 μM. The samples were analyzed by LC/MS monitoring both test article and testosterone. Log (D) was calculated for each duplicate sample by taking the calculated concentration of the least diluted sample for each phase that fell within the standard curve using the following equation: Log(D)=Log10(Calc. Conc. in Organic Phase/Calc. Conc. in Aqueous Phase).
# 2C9 = 2C9 (Homo sapiens, UniProt P11712); assay: Cytochrome p450 inhibition assessment, 2C9; assay type: in vitro ADME; settings: concentration range tested, upper 100 μM
# Description: (§1) The ability of test compounds to inhibit five major human cytochrome p450 isozymes was evaluated. Cytochrome p450 inhibition assays were performed on 96-well microtiter assay plates according to the protocols described in Gentest P450 inhibition instruction manuals. The assays were performed in duplicate at 8 concentrations with the upper concentration of 100 μM followed by a 1:3 serial dilution. Reactions were initiated by the addition of 100 μL of enzyme/substrate mix to 100 μL of cofactor/serial dilution mix, and terminated by addition of 75 μL of a 4:1 acentonitrile: 0.5 M Tris base solution or by 2N NaOH for CYP3A4/DBF. Fluorescence was measured using a fluorescence plate reader (FLUOstar model 403, BMG Lab Technologies, Durham, N.C.). For reactions with inhibition greater than 50%, IC50 values were determined by fitting the data to the Hill equation using software GraphPad Prism (Version 4.02, GraphPad Software, San Diego, Calif.).
# CYP2D6 = CYP2D6 (Homo sapiens, UniProt P10635); assay: Cytochrome p450 inhibition assessment, CYP2D6; assay type: in vitro ADME; settings: concentration range tested, upper 100 μM
# Description: as §1
# CYP3A4 = CYP3A4 (Homo sapiens, UniProt P08684); assay: Cytochrome p450 inhibition assessment, CYP3A4; assay type: in vitro ADME; settings: concentration range tested, upper 100 μM
# Description: as §1
# CYP1A2 = target: T1, CYP1A2 (Homo sapiens, UniProt P05177); assay: Cytochrome p450 inhibition assessment, CYP1A2; assay type: in vitro ADME; settings: estimated
# T1 sequence (P05177 1-516): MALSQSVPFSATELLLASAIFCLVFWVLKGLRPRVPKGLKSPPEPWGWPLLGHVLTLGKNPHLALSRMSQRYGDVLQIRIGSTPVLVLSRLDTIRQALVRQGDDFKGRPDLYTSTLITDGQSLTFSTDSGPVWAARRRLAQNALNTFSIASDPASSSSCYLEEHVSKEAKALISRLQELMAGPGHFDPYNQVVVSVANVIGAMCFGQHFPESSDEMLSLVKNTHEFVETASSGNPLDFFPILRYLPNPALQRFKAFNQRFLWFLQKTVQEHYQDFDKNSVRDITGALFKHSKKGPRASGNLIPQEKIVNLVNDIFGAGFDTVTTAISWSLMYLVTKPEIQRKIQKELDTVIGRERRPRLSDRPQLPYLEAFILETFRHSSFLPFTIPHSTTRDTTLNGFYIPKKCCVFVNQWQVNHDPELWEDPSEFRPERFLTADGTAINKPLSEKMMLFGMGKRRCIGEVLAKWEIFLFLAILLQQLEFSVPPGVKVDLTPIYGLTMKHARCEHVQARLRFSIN
# Description: as §1
# CYP3A4, sequence (P08684 whole entry): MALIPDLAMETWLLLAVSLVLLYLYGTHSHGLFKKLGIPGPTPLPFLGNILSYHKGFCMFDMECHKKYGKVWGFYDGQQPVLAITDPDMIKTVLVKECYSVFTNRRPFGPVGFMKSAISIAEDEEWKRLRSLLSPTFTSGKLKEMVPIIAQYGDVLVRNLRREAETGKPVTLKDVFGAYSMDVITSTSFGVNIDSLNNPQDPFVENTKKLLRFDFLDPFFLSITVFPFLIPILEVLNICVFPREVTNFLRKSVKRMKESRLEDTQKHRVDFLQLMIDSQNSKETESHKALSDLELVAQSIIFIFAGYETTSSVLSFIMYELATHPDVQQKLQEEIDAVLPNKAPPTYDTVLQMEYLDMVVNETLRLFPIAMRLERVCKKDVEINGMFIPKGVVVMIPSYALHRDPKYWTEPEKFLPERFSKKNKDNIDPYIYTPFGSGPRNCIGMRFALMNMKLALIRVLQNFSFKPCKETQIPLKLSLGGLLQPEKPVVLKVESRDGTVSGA
# 2C9, sequence (P11712 whole entry): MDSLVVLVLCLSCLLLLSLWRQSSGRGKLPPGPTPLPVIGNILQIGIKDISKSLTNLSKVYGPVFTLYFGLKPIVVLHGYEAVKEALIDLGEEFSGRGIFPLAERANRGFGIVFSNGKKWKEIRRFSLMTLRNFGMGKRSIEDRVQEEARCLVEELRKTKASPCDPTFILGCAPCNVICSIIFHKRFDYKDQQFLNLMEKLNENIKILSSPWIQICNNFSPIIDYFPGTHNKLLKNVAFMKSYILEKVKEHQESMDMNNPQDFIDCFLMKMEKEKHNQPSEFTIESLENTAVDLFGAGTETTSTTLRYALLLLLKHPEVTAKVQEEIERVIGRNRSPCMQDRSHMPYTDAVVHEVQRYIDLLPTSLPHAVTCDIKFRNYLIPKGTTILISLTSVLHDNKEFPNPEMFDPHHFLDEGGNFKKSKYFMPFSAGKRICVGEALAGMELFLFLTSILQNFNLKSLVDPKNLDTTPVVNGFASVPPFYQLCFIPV
# CYP2D6, sequence (P10635 whole entry): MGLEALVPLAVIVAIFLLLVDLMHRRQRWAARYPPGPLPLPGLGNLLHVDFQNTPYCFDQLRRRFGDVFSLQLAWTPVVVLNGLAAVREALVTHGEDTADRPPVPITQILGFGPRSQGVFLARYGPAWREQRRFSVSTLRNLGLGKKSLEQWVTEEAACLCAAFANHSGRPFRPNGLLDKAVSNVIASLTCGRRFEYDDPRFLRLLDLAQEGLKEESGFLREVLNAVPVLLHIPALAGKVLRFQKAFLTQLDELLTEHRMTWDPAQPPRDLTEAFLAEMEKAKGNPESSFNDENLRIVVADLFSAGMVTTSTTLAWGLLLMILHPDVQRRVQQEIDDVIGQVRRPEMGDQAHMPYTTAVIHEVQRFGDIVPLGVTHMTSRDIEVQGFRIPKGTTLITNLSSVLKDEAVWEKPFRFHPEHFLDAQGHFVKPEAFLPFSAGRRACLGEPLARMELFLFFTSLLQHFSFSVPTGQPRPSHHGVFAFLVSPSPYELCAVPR
compound,measurement,setting,value
"O=C(Nc1ccc(C(F)(F)F)cc1)c1ccc(-c2ncccc2Cl)cc1 [Compound 18, 4-(3-Chloropyridin-2-yl)-N-(4-trifluoromethyl-phenyl)benzamide]",% Inhibition @ 1 uM,VR1 receptor,+ + + + (compound exhibited 75% or greater inhibition of calcium ion influx induced by capsaicin stimulation)
same,latency of paw withdrawal (reversal of thermal hyperalgesia),thermal hyperalgesia,significantly increased
same,solubility thermodynamic,"[1]; pH 2.0 isotonic NaCl/HCl solution, simulated gastric fluid, thermodynamic from solid, pH 2.0 isotonic NaCl/HCl",< 0.2 µg/mL
same,equilibrium solubility,[1]; pH 7.4 aqueous buffer,low solubility
same,Log (D),[2],less than 4.7
same,inhibition of 2C9 activity,2C9,did not significantly inhibit
same,inhibition of CYP2D6 activity,CYP2D6,did not significantly inhibit
same,inhibition of CYP3A4 activity,CYP3A4,did not significantly inhibit
same,IC50,CYP1A2,97.5 µM
